Entries after “also recorded” stand apart in the source; their conditions may differ.
What was measured:
[1] = tested on: Salmonella Typhimurium TA-98; experiment: Modified Maron-Ames test, strain TA-98; conditions: for cytotoxicity: strain TA-98, with microsomal enzyme S-9 activation, no effect on the background lawn; for mutagenicity (revertant colonies): strain TA-98, with or without metabolic activation S-9
Method: (§1) Serial dilutions (100 fold) were made with DMSO to obtain samples with dilution factors of 10^−3, 10^−5, and 10^−7. The assays were performed according to the modified methods of Maron and Ames (Maron D. R. and Ames, B. N. Mutation Research, 1980, Vol. 113, 173-215) using two strains of Salmonella Typhimurium TA-98 and TA-100, with and without metabolic activation of the substrate. The male rat microsomal homogenate S-9 was used to effect metabolic activation of the substrate. TA-98 and TA-100 were cultured in Oxoid Nutrient Broth No.2 at 37° C. for 16 hours using a gyratory shaker (200-250 rpm).
(§2) Compounds were assayed after the bacteria tested positive for the viability-related criteria above. Two mL top agar was placed in sterile culture tubes and kept at ˜40° C. in a water bath. Samples (100 μL) were placed in each tube (3 tubes per sample) and 100 μL of either strain TA-98 or TA-100 was added. When required, the S-9 homogenate (500 μL) was then added. The tubes were mixed and poured into minimal glucose agar plates. The plates were left at room temperature until the top agar solidified. Then, they were inverted and incubated at 37° C. for 48 hours. After incubation, revertant colonies were counted. Samples that presented greater than 2 times the number of revertant colonies were considered mutagenic. (See FIGS. 9(a) through (f)).

[2] = tested on: Salmonella Typhimurium TA-100; experiment: Modified Maron-Ames test, strain TA-100; conditions: for dilution at which a mutagenic response was observed: dilution in DMSO
Method: as §1, with “Serial dilutions (100 fold) were made with DMSO to obtain samples with dilution factors of 10^−3, 10^−5, and 10^−7.” left out
as §2

CC(C)(c1ccc(OCC2CO2)cc1)c1ccc(OCC2CO2)cc1 (stereo not shown) [DGEBA, diglycidyl ether of bisphenol-A]
cytotoxicity [1]: slightly cytotoxic
mutagenicity (revertant colonies) [1]: no apparent mutagenicity
cytotoxicity and mutagenicity, overall conclusion ([1]; tester strain TA-98, all concentrations): neither cytotoxic nor mutagenic
dilution at which a mutagenic response was observed ([2]; strain TA-100, with S-9 activation): greater than 10^−3
dilution at which a mutagenic response was observed ([2]; strain TA-100, without S-9 activation): greater than 10^−5

epoxyallyl sucrose [EAS]
cytotoxicity [1]: slightly cytotoxic

epoxycrotyl sucrose [ECS]
cytotoxicity [1]: slightly cytotoxic

epoxymethallyl sucrose [EMS]
cytotoxicity [1]: slightly cytotoxic
mutagenicity (revertant colonies) [1]: no apparent mutagenicity; also recorded: no mutagenic response
cytotoxicity ([2]; Maron-Ames tests, about 10 mg/mL concentration in DMSO, strain not stated): borderline cytotoxicity
cytotoxicity ([2]; dilution factors of 10^−1): borderline cytotoxic
mutagenic response ([2]; strain TA-100, dilution factor 10^−1 in DMSO, with or without S-9 activation): mutagenic response was observed
revertant colonies ([2]; strain TA-100, dilution factor 10^−2): had not doubled

Source: patent US20040210047A1, “Methallyl sucroses and their epoxy derivatives” (priority 2003, published 2004)
